Active and inactive are the calls of the source. The calls are words filed in the database; no cut-off is given here.
What was measured:
HepG2 = assay: Hepatoprotective activity against acetaminophen-induced cell damage in human HepG2 cells assessed as increase in cell survival at 10 uM incubated for 24 hrs by CCK-8 assay relative to control; format: functional; settings: read-out: Survival
RAW264.7 [1] = assay: Antiinflammatory activity in LPS-induced mouse RAW264.7 cells assessed as reduction in IL-1beta mRNA expression incubated for 24 hrs by qPCR analysis; format: functional, cell-based; settings: dose 10-40 µM
RAW264.7 [2] = assay: Antiinflammatory activity in LPS-induced mouse RAW264.7 cells assessed as reduction in IL-1beta production at 10 to 40 uM incubated for 24 hrs by ELISA; format: functional, cell-based; settings: dose 10-40 µM
RAW264.7 [3] = assay: Antiinflammatory activity in LPS-induced mouse RAW264.7 cells assessed as reduction in IL-6 mRNA expression incubated for 24 hrs by qPCR analysis; format: functional, cell-based; settings: dose 10-40 µM
RAW264.7 [4] = assay: Antiinflammatory activity in LPS-induced mouse RAW264.7 cells assessed as reduction in IL-6 production at 10 to 40 uM incubated for 24 hrs by ELISA; format: functional, cell-based; settings: dose 10-40 µM
RAW264.7 [5] = assay: Antiinflammatory activity in LPS-induced mouse RAW264.7 cells assessed as inhibition of NO production at 10 to 40 uM incubated for 24 hrs by Griess reagent based assay; format: functional, cell-based; settings: dose 10-40 µM

SMILES | viability at 10 µM (HepG2) [%] | other results
C[C@H]1[C@H](C)CC[C@]2(C)CC[C@]3(C)C(=CC[C@@H]4[C@@]5(C)CC[C@H](O)C(C)(C)[C@@H]5CC[C@]43C)[C@H]12 | 61 | –
COC(=O)c1cc(OC)c2c(c1-c1c(CO)cc(OC)c3c1OCO3)OCO2 [BICYCLOL] | 60 | –
CC1(C)CC[C@]2(CO)CC[C@]3(C)C(=CC[C@@H]4[C@@]5(C)CC[C@H](O)C(C)(C)[C@@H]5CC[C@]43C)[C@@H]2C1 [ERYTHRODIOL] | 61 | Activity (RAW264.7 [1]): Dose-Dependent Effect; Activity (RAW264.7 [2]): Active; Activity (RAW264.7 [3]): Dose-Dependent Effect; Activity (RAW264.7 [4]): Active; Activity (RAW264.7 [5]): Active
C[C@H]1[C@H](C)CC[C@]2(CO)CC[C@]3(C)C(=CC[C@@H]4[C@@]5(C)CC[C@H](O)C(C)(C)[C@@H]5CC[C@]43C)[C@H]12 [UVAOL] | 61 | –
CC1(C)CC[C@]2(C)CC[C@]3(C)C(=CC[C@@H]4[C@@]5(C)CC[C@H](O)C(C)(C)[C@@H]5CC[C@]43C)[C@@H]2C1 [beta-AMYRIN] | 61 | –

Reference: ChEMBL document CHEMBL5385955, “Minor Hydroxylated Triterpenoids Produced in Engineered Yeast by the Enzymes OSC and CYP716s from the Plant Enkianthus chinensis and Their Anti-Inflammatory and Hepatoprotective Activities” (2024)
